Literature values, collected in PMC6270655, “Mixed Antimony(V) Complexes with Different Sugars to Modulate the Oral Bioavailability of Pentavalent Antimonial Drugs” (Molecules, 2014).

Parameters: method as in PMID 22573856

half-life: ~ 150 h
Compound: CCCCCCCCCCCCCCCCOP(=O)([O-])OCC[N+](C)(C)C [miltefosine, hexadecylphosphocholine]
